Results taken from patent US9260467B2, “Sialic acid dimers” (priority 2011, dated 2016).

Legend:
Siglec-2 (CD22) [1] = target: T1, Siglec-2 (CD22) (Homo sapiens, UniProt P20273); assay: known affinity assay (Bock et al., Methods Mol. Biol. 2006), 'Literature assay'; format: binding; conditions: relative Inhibitory Potency; BPC Neu5Ac = 1
T1 sequence (P20273 20-847): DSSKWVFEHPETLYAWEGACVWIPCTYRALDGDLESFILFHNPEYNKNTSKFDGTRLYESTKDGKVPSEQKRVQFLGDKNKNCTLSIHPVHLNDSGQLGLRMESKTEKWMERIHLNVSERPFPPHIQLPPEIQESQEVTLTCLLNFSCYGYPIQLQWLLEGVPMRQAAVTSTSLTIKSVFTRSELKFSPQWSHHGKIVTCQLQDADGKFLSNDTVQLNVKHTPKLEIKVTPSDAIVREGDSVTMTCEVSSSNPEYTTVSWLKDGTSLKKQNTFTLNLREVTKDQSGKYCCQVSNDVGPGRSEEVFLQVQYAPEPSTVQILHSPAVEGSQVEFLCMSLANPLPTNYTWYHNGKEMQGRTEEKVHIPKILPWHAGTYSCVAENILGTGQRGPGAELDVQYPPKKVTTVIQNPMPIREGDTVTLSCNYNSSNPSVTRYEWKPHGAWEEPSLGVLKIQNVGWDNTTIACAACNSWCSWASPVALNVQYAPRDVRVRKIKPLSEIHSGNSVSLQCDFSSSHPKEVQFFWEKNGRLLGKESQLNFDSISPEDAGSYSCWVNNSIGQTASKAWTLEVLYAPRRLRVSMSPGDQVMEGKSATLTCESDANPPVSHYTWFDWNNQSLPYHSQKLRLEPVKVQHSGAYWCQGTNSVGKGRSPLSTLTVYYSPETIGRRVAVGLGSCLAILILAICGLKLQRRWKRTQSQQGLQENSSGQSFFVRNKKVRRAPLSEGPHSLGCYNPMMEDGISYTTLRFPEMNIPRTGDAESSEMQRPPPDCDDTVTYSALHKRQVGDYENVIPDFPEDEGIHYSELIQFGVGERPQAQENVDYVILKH
Method: The affinity of a number of dimers was measured using a known assay (Bock et al., Methods Mol. Biol. 2006, 347, 359-375). […] Exact values were undeterminable, however, owing to fluctuating values. In order to be able to determine the affinity of the new derivatives reliably, a new assay was drawn up. For this assay, compound 155 was prepared.

Siglec-2 (CD22) [2] = target: T1, Siglec-2 (CD22); assay: new affinity assay: displacement of biotinylated compound 155 from sialidase-treated Daudi cells, FACS with streptavidin-PE; format: binding; design: endogenous in cells; host or cells: Daudi (human B-cell lymphoma line); conditions: for rIP: Table II, rIP values set relative to compound 38, Daudi cells, displacement of compound 155; for rIP (New assay): relative Inhibitory Potency from IC50, human B-cell lymphoma line Daudi, compound 38 = 1
Outline: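 Sialidase-treated Daudi cells preincubated on ice 15 min with inhibitor (1 mM to 1×10^−7 mM), then 20 min with biotinylated probe (4 μM as added); bound probe detected by streptavidin-PE flow cytometry. IC50 converted to relative inhibitory potency (rIP) against a reference substance.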

Structure (SMILES) | rIP (Literature assay) (Siglec-2 (CD22) [1]) | rIP (Siglec-2 (CD22) [2]) | rIP (New assay) (Siglec-2 (CD22) [2])
CC(=O)N[C@H]1[C@H]([C@H](O)[C@H](O)CO)O[C@@](OCCCSCCNC(=O)c2ccc(C(=O)NCCSCCCO[C@]3(C(=O)[O-])C[C@H](O)[C@@H](NC(C)=O)[C@H]([C@H](O)[C@H](O)CO)O3)cc2)(C(=O)[O-])C[C@@H]1O.[Na+].[Na+] [Compound 38] | ~1-3 | 1 | 1
CC(=O)N[C@H]1[C@H]([C@H](O)[C@H](O)CNC(=O)c2ccc(-c3ccccc3)cc2)O[C@@](OCCCSCCNC(=O)c2ccc(C(=O)NCCSCCCO[C@]3(C(=O)[O-])C[C@H](O)[C@@H](NC(C)=O)[C@H]([C@H](O)[C@H](O)CNC(=O)c4ccc(-c5ccccc5)cc4)O3)cc2)(C(=O)[O-])C[C@@H]1O.[Na+].[Na+] [Compound 21] | >2000 | 2979 | 2979
CO[C@]1(C(=O)[O-])C[C@H](O)[C@@H](NC(C)=O)[C@H]([C@H](O)[C@H](O)CNC(=O)c2ccc(-c3ccccc3)cc2)O1.[Na+] [BPC Neu 5Ac, reference compound] | 1 |  | 
CC(=O)N[C@H]1[C@H]([C@H](O)[C@H](O)CNC(=O)c2ccc(-c3ccccc3)cc2)O[C@@](OCCCSCCNC(=O)c2ccc(C(=O)NCCSCCCO[C@]3(C(=O)[O-])C[C@H](O)[C@@H](NC(C)=O)[C@H]([C@H](O)[C@H](O)CNC(=O)c4ccc(-c5ccccc5)cc4)O3)nc2)(C(=O)[O-])C[C@@H]1O.[Na+].[Na+] [Compound 27] |  | 2990 | 
CC(=O)N[C@H]1[C@H]([C@H](O)[C@H](O)CNC(=O)c2ccc(-c3ccccc3)cc2)O[C@@](OCCCCCCNC(=O)c2ccc(C(=O)NCCSCCCO[C@]3(C(=O)O)C[C@H](O)[C@@H](NC(C)=O)[C@H]([C@H](O)[C@H](O)CNC(=O)c4ccc(-c5ccccc5)cc4)O3)cc2)(C(=O)O)C[C@@H]1O [Compound 92] |  | 3788 | 
CC(=O)N[C@H]1[C@H]([C@H](O)[C@H](O)CNC(=O)c2ccc(-c3ccc(C)cc3)cc2)O[C@@](OCCCSCCNC(=O)c2ccc(C(=O)NCCSCCCO[C@]3(C(=O)[O-])C[C@H](O)[C@@H](NC(C)=O)[C@H]([C@H](O)[C@H](O)CNC(=O)c4ccc(-c5ccc(C)cc5)cc4)O3)cc2)(C(=O)[O-])C[C@@H]1O.[Na+].[Na+] [Compound 76] |  | 188 | 
CC(=O)N[C@H]1[C@H]([C@H](O)[C@H](O)CNC(=O)c2ccc3c(c2)C(=O)c2ccccc2-3)O[C@@](OCCCSCCNC(=O)c2ccc(C(=O)NCCSCCCO[C@]3(C(=O)[O-])C[C@H](O)[C@@H](NC(C)=O)[C@H]([C@H](O)[C@H](O)CNC(=O)c4ccc5c(c4)C(=O)c4ccccc4-5)O3)cc2)(C(=O)[O-])C[C@@H]1O.[Na+].[Na+] [Compound 78] |  | 27 | 
CC(=O)N[C@H]1[C@H]([C@H](O)[C@H](O)CNC(=O)c2ccc(-c3ccccc3)cc2)O[C@@](OCCCSCCNC(=O)c2ccc(-c3ccc(C(=O)NCCSCCCO[C@]4(C(=O)[O-])C[C@H](O)[C@@H](NC(C)=O)[C@H]([C@H](O)[C@H](O)CNC(=O)c5ccc(-c6ccccc6)cc5)O4)cc3)cc2)(C(=O)[O-])C[C@@H]1O.[Na+].[Na+] [Compound 24] |  | 75 | 
CC(=O)N[C@H]1[C@H]([C@H](O)[C@H](O)CNC(=O)c2ccc(-c3ccccc3)cc2)O[C@@](OCCCSCCNC(=O)c2ccc(C(=O)NCCSCCCO[C@]3(C(=O)[O-])C[C@H](O)[C@@H](NC(C)=O)[C@H]([C@H](O)[C@H](O)CNC(=O)c4ccc(-c5ccccc5)cc4)O3)c3ccccc23)(C(=O)[O-])C[C@@H]1O.[Na+].[Na+] [Compound 34] |  | 899 | 
CC(=O)N[C@H]1[C@H]([C@H](O)[C@H](O)CNC(=O)c2ccc(Cl)cc2)O[C@@](OCCCSCCNC(=O)c2ccc(C(=O)NCCSCCCO[C@]3(C(=O)[O-])C[C@H](O)[C@@H](NC(C)=O)[C@H]([C@H](O)[C@H](O)CNC(=O)c4ccc(Cl)cc4)O3)cc2)(C(=O)[O-])C[C@@H]1O.[Na+].[Na+] [Compound 72] |  | 38 | 
CC(=O)N[C@H]1[C@H]([C@H](O)[C@H](O)CNC(=O)c2ccc(-c3ccccc3)cc2)O[C@@](OCCCSCCC(=O)Nc2cccc(NC(=O)CCSCCCO[C@]3(C(=O)[O-])C[C@H](O)[C@@H](NC(C)=O)[C@H]([C@H](O)[C@H](O)CNC(=O)c4ccc(-c5ccccc5)cc4)O3)c2)(C(=O)[O-])C[C@@H]1O.[Na+].[Na+] [Compound 41] |  | 423 | 
CC(=O)N[C@H]1[C@H]([C@H](O)[C@H](O)CNC(=O)c2ccc(-c3ccccn3)cc2)O[C@@](OCCCSCCNC(=O)c2ccc(C(=O)NCCSCCCO[C@]3(C(=O)[O-])C[C@H](O)[C@@H](NC(C)=O)[C@H]([C@H](O)[C@H](O)CNC(=O)c4ccc(-c5ccccn5)cc4)O3)cc2)(C(=O)[O-])C[C@@H]1O.[Na+].[Na+] [Compound 77] |  | 95 | 
CC(=O)N[C@H]1[C@H]([C@H](O)[C@H](O)CNC(=O)c2ccc(-c3ccccc3)cc2)O[C@@](OCCCSCCNC(=O)c2ccc(NC(=O)CCSCCCO[C@]3(C(=O)[O-])C[C@H](O)[C@@H](NC(C)=O)[C@H]([C@H](O)[C@H](O)CNC(=O)c4ccc(-c5ccccc5)cc4)O3)cc2)(C(=O)[O-])C[C@@H]1O.[Na+].[Na+] [Compound 54] |  | 7092 | 
CC(=O)N[C@H]1[C@H]([C@H](O)[C@H](O)CNC(=O)C#Cc2ccccc2)O[C@@](OCCCSCCNC(=O)c2ccc(-c3ccc(C(=O)NCCSCCCO[C@]4(C(=O)[O-])C[C@H](O)[C@@H](NC(C)=O)[C@H]([C@H](O)[C@H](O)CNC(=O)C#Cc5ccccc5)O4)cc3)cc2)(C(=O)[O-])C[C@@H]1O.[Na+].[Na+] [Compound 129] |  | 21 | 
CC(=O)N[C@H]1[C@H]([C@H](O)[C@H](O)CNC(=O)c2ccc(-c3ccccc3)cc2)O[C@@](OCCCSCCC(=O)Nc2c(C)c(C)c(NC(=O)CCSCCCO[C@]3(C(=O)[O-])C[C@H](O)[C@@H](NC(C)=O)[C@H]([C@H](O)[C@H](O)CNC(=O)c4ccc(-c5ccccc5)cc4)O3)c(C)c2C)(C(=O)[O-])C[C@@H]1O.[Na+].[Na+] [Compound 45] |  | 523 | 
CC(=O)N[C@H]1[C@H]([C@H](O)[C@H](O)CNC(=O)Cc2ccc3ccccc3c2)O[C@@](OCCCSCCNC(=O)c2ccc(C(=O)NCCSCCCO[C@]3(C(=O)[O-])C[C@H](O)[C@@H](NC(C)=O)[C@H]([C@H](O)[C@H](O)CNC(=O)Cc4ccc5ccccc5c4)O3)cc2)(C(=O)[O-])C[C@@H]1O.[Na+].[Na+] [Compound 66] |  | 197 | 
